This passage reports IC50 results from US9187459B2, “Quinazoline-7-ether compounds and methods of use” (NewGen Therapeutics, Inc., priority 2011, dated 2015).

One experiment concerns the target ErbB2 (HER2) (Homo sapiens (Human), UniProt P04626). In words: Kinase inhibition assay (TR-FRET, LanthaScreen), ErbB2 (HER2). The experiment is classed as biochemical. Conditions: ATP 1 mM. How it is done:
1) The compound is dissolved in DMSO to prepare a 10 mM solution, and was diluted to 100 micoM with water. […] Kinase activity was determined with time-resolved Fret (TR-FRET) assay (LanthaScreen® kinase activity assay, from InVitrogen).
2) The assay is performed in a Black 384-well plate (from Corning). The kinase and the compound was incubated for […] at room temperature. ATP (1 mM) and fluorescein-poly GT were added, and the reaction was incubated for […]. Detection agent SA-XL665 (from Cisbio Assay) and TK Ab-Cryptate detection antibody (from InVitrogen) were added to stop the reaction.
3) The 384-well plate was sealed and incubated for 1 hour. The fluorescence was then measured at […] (Cryptate) and 665 nM (XL655) wavelength.
4) Each concentration of compound was done in triplicate, and vehicle (without compound) and a positive control were used.
Data process: the ratio of fluorescence is calculated (value of fluorescence 665 nM over […]). The results are calculated from: signal=compound fluorescence ratio−vehicle ratio, and the IC50 was calculated based on inhibition curve.

Experiment [1] relates to Human breast cancer BT474 cells. As to the kind of experiment: Cell proliferation inhibition assay for BT474 (CCK-8). Conditions: BT-474, 72 h, text calls it EC50. The experiment is classed as cell-based. How it is done:
1) Human breast cancer BT474 cells were plated 10000 cells/well in a 96-well clear tissue culture plate. The cells were incubated for 24 h at 37° C. to allow adherence.
2) A serials of concentrations of each compound (ranging from 30 uM to 0.16 nM, 5-fold dilution) in 96-well plate, and incubated for 72 h. Each concentration was tested in triplicate. During the cell proliferation assay, BT474 cells were cultured in the complete cell culture solution (low-glucose DMEM containing 5% FBS, 50 ug/ml gentamicin).
3) The culture medium was removed via aspiration, and the cell viability was detected by CCK-8 cell proliferation kit.
4) The EC50 was calculated based on the proliferation curve.

Structures are written as SMILES.

Chain of ErbB2 (HER2) (P04626 23-1255): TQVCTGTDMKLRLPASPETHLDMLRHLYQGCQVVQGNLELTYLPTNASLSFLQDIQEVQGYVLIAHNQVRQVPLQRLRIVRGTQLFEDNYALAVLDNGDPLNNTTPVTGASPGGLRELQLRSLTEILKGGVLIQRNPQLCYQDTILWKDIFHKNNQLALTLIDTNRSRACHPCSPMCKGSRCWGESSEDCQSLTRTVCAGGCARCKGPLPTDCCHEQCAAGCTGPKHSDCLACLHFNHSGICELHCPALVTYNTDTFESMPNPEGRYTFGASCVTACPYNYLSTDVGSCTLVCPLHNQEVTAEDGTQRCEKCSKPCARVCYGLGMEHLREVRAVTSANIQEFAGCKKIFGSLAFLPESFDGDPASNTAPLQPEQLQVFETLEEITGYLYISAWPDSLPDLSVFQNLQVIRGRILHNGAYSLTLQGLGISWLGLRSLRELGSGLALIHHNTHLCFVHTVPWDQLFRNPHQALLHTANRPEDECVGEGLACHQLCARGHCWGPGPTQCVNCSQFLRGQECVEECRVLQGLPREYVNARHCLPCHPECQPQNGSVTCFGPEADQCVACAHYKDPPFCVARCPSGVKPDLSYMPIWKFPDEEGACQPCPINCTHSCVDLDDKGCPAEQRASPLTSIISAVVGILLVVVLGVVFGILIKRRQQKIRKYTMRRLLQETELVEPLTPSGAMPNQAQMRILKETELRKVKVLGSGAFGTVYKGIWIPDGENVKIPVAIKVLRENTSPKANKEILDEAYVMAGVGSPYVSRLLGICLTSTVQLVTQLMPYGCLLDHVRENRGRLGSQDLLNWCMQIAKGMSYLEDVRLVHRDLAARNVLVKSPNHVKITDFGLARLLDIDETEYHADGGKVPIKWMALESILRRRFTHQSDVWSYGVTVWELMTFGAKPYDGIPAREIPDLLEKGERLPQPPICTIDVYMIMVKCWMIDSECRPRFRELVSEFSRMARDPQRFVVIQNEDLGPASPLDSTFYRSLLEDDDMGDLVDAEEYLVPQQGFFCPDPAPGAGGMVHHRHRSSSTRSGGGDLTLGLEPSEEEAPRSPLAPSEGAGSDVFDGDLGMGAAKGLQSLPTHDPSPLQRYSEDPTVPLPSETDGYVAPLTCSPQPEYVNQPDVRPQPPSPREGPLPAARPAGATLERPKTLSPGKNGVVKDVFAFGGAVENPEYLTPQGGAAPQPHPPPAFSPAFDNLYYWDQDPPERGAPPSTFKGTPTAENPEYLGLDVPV

Take `CN(C)C/C=C/C(=O)Nc1cc2c(Nc3ccc(F)c(Cl)c3)ncnc2cc1OCC1C2COCC21` (centres unmarked) [Example 2, (E)-N-(7-((3-oxa-bicyclo[3.1.0]hexan-6-yl)methoxy)-4-(3-chloro-4-fluorophenylamino)quinazolin-6-yl)-4-(dimethylamino)but-2-enamide]: the IC50 on ErbB2 (HER2) is 6 nM; in experiment [1] it was 19.1 nM.
